The values that follow come from PubChem BioAssay (NCI).

Several values for one entry are separate records, joined by “and”; a condition that tells them apart may be missing. Equal entries are not always repeated.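 Compound exposure: 48 hours, 5 concentrations, 96-well plates. GI50: concentration for 50% inhibition of growth. At the TGI there is no net growth.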

Assay in all cases: NCI anticancer screen, dose series, 48 h
Assay [1] deals with HT29 colon.
The test system of assay [2] is K-562 leukemia.
For assay [3], the system named is KM12 colon.
Assay [4] has as its system M14 melanoma.
Assay [5] relates to OVCAR-8 ovarian.
The subject of assay [6] is PC-3 prostate.
In assay [7] the test system is RXF 393 renal.
The test system of assay [8] is SF-295 CNS.
Assay [9] has as its system SW-620 colon.
For assay [10], the system named is T-47D breast.

As for `O=C1C(=O)c2ccc(Br)cc2-c2cc(Br)ccc21`, the GI50 in assay [1] is above 74.3 µM; in assay [2], 0.799 µM; in [3], 9.65 µM; in assay [4], 6.34 µM; in [5] it was 0.852 µM; in [6], 20.3 µM. The GI50 in assay [7] was 1.85 µM; in assay [8], 51.8 µM; in assay [9] it was 0.84 µM; in assay [10], 1.41 µM. For the same molecule, the TGI is above 100 µM in assay [1]; above 29.8 µM in [2]; above 100 µM in assay [3]; above 66.6 µM in [4]; 2.57 µM in assay [5]; above 96.6 µM in assay [6]. Also, the TGI in [7] is 7.36 µM; in [8] it was above 100 µM; in assay [9], 2.91 µM; in [10] it was 3.92 µM.
With `OCCN1CCN(CCCN2c3ccccc3Sc3ccc(C(F)(F)F)cc32)CC1`, the GI50 in assay [1] is 0.897 µM and 4.12 µM and 3.23 µM; in [2], 1.27 µM and 3.18 µM and 2.05 µM; in assay [3] it was 2.35 µM and 8.95 µM; in assay [4] it was 0.899 µM and 2.34 µM; in assay [5] it was 4.46 µM and 13.6 µM and 14 µM; in assay [6], 1.97 µM and 8.77 µM and 10.3 µM. In addition, the GI50 in assay [7] was 1.35 µM and 5.08 µM and 5.7 µM; in assay [8], 1.02 µM and 4.73 µM and 2.41 µM; in assay [9], 1.93 µM and 11.7 µM and 4.22 µM; in assay [10], 1.36 µM and 8.88 µM and 7.46 µM. In addition, the TGI in [1] was 1.78 µM and 13.9 µM and 11 µM; in assay [2] it was 2.83 µM and 10.7 µM and 4.73 µM; in [3], 8.01 µM and 21.6 µM; in [4] it was 1.73 µM and 6.13 µM; in assay [5], 11.4 µM and 28.5 µM and 28.8 µM; in assay [6] it was 8.14 µM and 21.6 µM and 23 µM. For the same molecule, the TGI is 6.39 µM and 18.9 µM and 19.6 µM in [7]; 2.7 µM and 19.2 µM and 6.19 µM in assay [8]; 8.01 µM and 25.4 µM and 16.2 µM in assay [9]; 6.12 µM and 25.8 µM and 22.9 µM in assay [10].
As for `COc1ccc(C2C3=C(NC(=O)C2C#N)c2ccc4ccccc4c2OCC3)cc1` (stereo not given), the GI50 was above 100 µM in assay [1]; above 100 µM in assay [2]; above 100 µM in assay [3]; 90.2 µM in assay [4]; 21.4 µM in assay [5]; 86.9 µM in assay [6]. The GI50 in assay [7] is 16.3 µM; in assay [8], 27.4 µM; in assay [9], above 100 µM; in assay [10], above 100 µM. Further, the TGI was above 100 µM in assay [1]; above 100 µM in assay [2]; above 100 µM in [3]; above 100 µM in assay [4]; 45.3 µM in assay [5]; above 100 µM in [6]. For the same molecule, the TGI in assay [7] was 48.9 µM; in assay [8], above 100 µM; in [9], above 100 µM; in assay [10], above 100 µM.
As to `COc1ccc2c(c1)O/C(=C\c1cccc(OCC(=O)Nc3nc4ccccc4s3)c1)C2=O`, the GI50 in assay [1] was above 58.7 µM; in assay [2], 6.07 µM; in assay [3], 9.61 µM; in assay [4], 36.3 µM; in assay [5], 12.6 µM; in [6] it was 8.46 µM. Moreover, the GI50 is 1.96 µM in [7], 11.4 µM in [8], 38.4 µM in [9] and 9.66 µM in assay [10]. Further, the TGI in [1], in [2], in assay [3], in assay [4], in assay [5] and in assay [6] was above 100 µM in each case. Besides, the TGI is 3.99 µM in assay [7], above 71.7 µM in assay [8], above 100 µM in assay [9] and above 100 µM in [10].
Consider `C[C@@H]1O[C@@H](O[C@H]2C[C@@H](O)[C@]3(CO)C4C(CC[C@]3(O)C2)[C@@]2(O)CC[C@H](C3=CC(=O)OC3)[C@@]2(C)C[C@H]4O)[C@H](O)[C@H](O)[C@H]1O` (stereo not given in full), for which the GI50 is 0.0248 µM in assay [1]; 0.0323 µM in [2]; 0.0512 µM in assay [3]; 0.0855 µM in [4]; 0.0189 µM in [5]; 0.0214 µM in assay [6]. For the same molecule, the GI50 in [7] is 0.0115 µM; in assay [8] it was 0.0196 µM; in [9] it was 0.022 µM; in [10], 0.0215 µM. The TGI in [1] was 0.0836 µM; in [2] it was 0.162 µM; in [3], 0.132 µM; in assay [4] it was 0.166 µM; in assay [5], 0.0691 µM; in assay [6], 0.113 µM. Also, the TGI was found to be 0.0291 µM in assay [7], 0.098 µM in assay [8], 0.0869 µM in assay [9] and 0.0847 µM in assay [10].
In the case of `Cn1cc(-c2cc3c(Nc4ccc(CC(=O)Nc5cc(C(C)(C)C)on5)cc4)ncnc3[nH]2)cn1`, the GI50 was 1.1 µM and 1.11 µM in assay [1]; 1.21 µM and 0.596 µM in assay [2]; 0.0596 µM and 0.0468 µM in assay [3]; 0.961 µM and 0.69 µM in assay [4]; 0.893 µM and 0.49 µM in assay [5]; 1.59 µM and 0.612 µM in assay [6]. Further, the GI50 is 0.723 µM and 0.461 µM in assay [7]; 1.64 µM and 1.32 µM in assay [8]; 0.871 µM and 0.654 µM in assay [9]; 0.315 µM and 0.289 µM in assay [10]. Moreover, the TGI in [1] was 6.95 µM and 9.63 µM; in [2], > 100 µM and 11.2 µM; in assay [3] it was 2.39 µM and 1.82 µM; in [4], 3.02 µM and 2.3 µM; in assay [5] it was 5.06 µM and 4.54 µM; in assay [6], 11.3 µM and 3.58 µM. The TGI is 1.88 µM and 1.48 µM in [7]; 6.21 µM and 6.2 µM in assay [8]; 2.75 µM and 5.73 µM in assay [9]; 6.12 µM and 2.19 µM in assay [10].
As for `O=S(=O)(c1cccc(C(F)(F)F)c1)N1c2ccccc2-n2cccc2C1c1cccnc1` (stereo not given), the TGI in assay [1] is above 58 µM; in [2], above 86.4 µM; in [3] it was above 100 µM; in [4], above 55.8 µM; in assay [5] it was above 100 µM; in [6], above 52.6 µM. Further, the TGI in [7] is above 53.9 µM; in [8], above 100 µM; in [9] it was above 60.4 µM; in [10] it was above 70.4 µM.
As to `CN(C)c1c(Cl)c(=O)oc2c1ccc1nc(-c3ccccc3)sc12`, the TGI in [1], in assay [2], in [3], in assay [4], in assay [5] and in [6] was above 100 µM throughout. The TGI in assay [7], in assay [8], in assay [9] and in assay [10] was above 100 µM throughout.
